Patent US20090012152A1, “Use of Tetramic Acid Derivatives for Controlling Insects from the Genus of the Plane Lice (Sternorrhyncha)” (Bayer CropScience Aktiengesellschaft, priority 2005, published 2009)

How the values were obtained:
Format in all cases: in vivo
[1] = system: Psylla piri; test: Example 6: pear trees treated against Psylla piri; settings: larvae on shoots, % a.i.: amitraz 0.05, I-9, I-2, I-1 0.096
Protocol: In three replications, in each case 4 about 4-year-old pear trees of the cultivar “Williams Christ” are treated against Psylla piri. Two applications are carried out at an interval of 11 days using a motor-operated barrow-mounted sprayer. Here, the active compounds Example (I-9) (240 SC), Example (I-2) (240 SC) and Example (I-1) (240 SC) are tested against the commercial standard Amitraz (200 EC) at the stated amounts. The application rate is 2000 l of water/ha.
Evaluation is carried out 3, 10 and 20 days after the last treatment by rating the kill of the larvae in percent on the shoots.

[2] = system: Myzus persicae; test: Example 50: tomatoes treated against Myzus persicae; settings: nymphs on leaves, g a.i./ha: acetamiprid 50, I-9 36, I-4 48
Protocol: In two replications, plots of a size of about 43 m^2 with tomatoes of the cultivar “Yaqui” are treated against Myzus persicae. The application is carried out using a motor-operated knapsack sprayer. Here, the active compounds Example (I-9) (240 SC) and Example (I-4) (240 SC), in a tank mix with 0.1% a.i. of rapeseed oil methyl ester (500 EW), and the standard acetamiprid (20 WP) are applied at the stated application rates. The application rate is 208 l of water/ha.
Evaluation is carried out 3 and 10 days after the treatment by rating the kill of the nymphs on the leaves.

[3] = system: Bemisia argentifolii; test: Example 37: cantaloupe melons treated against Bemisia argentifolii; settings: nymphs on leaves, g a.i./ha: endosulfan 1120, I-4 48
Protocol: In four replications, plots of a size of about 39 m^2 with cantaloupe melons of the cultivar “Western Shipper” are treated against Bemisia argentifolii. The application is carried out using a knapsack sprayer operated with pressurized air. Here, the active compound Example (I-4) (240 SC), in a tank mix with 0.2 a.i. of rapeseed oil methyl ester (500 EW), and the commercial standard endosulfan (360 EC) are tested at the stated application rates. Two applications are carried out at an interval of 16 days. The application rate is 187 l of water/ha.
Evaluation is carried out 5, 13, 21 and 29 days after the first treatment by rating the kill of the animals (nymphs) on the leaves.

[4] = system: Myzus persicae; test: Example 48: aubergine plants treated against Myzus persicae; settings: on leaves, rate (g of a.i./ha): pymethrozine 0.0125, I-4 0.024
Protocol: In three replications, four aubergine plants (age about 7 months) of the cultivar “Hayabusa” are treated against Myzus persicae. The application is carried out using a motor-operated knapsack sprayer. Here, the active compound Example (I-4) (240 SC), in a tank mix with 0.1% a.i. of rapeseed oil methyl ester (500 EW), and the commercial standard pymethrozine (25 WP) are tested at the stated application rates. The application rate is 3000 l of water/ha.
Evaluation is carried out 7, 14, 21 and 29 days after the treatment by rating the kill of the animals on the leaves.

[5] = system: Nasonovia ribisnigri; test: Example 42: head lettuce treated against Nasonovia ribisnigri; settings: on plants, g a.i./ha: Pirimor 150, I-4 48, I-8 42
Protocol: In four replications, plots of a size of 5 m^2 with head lettuce are, two weeks after transplantation, treated against Nasonovia ribisnigri. The application is carried out using a knapsack sprayer operated with pressurized air. Here, the active compounds Example (I-4) (240 SC) and Example (I-8) (240 SC) are, in a tank mix with 0.2% a.i. of rapeseed oil methyl ester (500 EW), tested against the commercial standard Pirimor, at the stated application rates. The application rate is 500 l of water/ha.
Evaluation is carried out 7, 14 and 26 days after the treatment by rating the kill of the animals on the plants.

[6] = system: Pseudaulacaspis pentagons; test: Example 22: peach trees treated against Pseudaulacaspis pentagons; settings: crawlers on shoots, g a.i./ha/m crown height: Esteem 98, I-4 120
Protocol: In ten replications, on about 46 m^2, peach trees are treated against Pseudaulacaspis pentagons. Two applications are carried out at an interval of 57 days using a sprayer operated with pressurized air. Here, the active compound Example (I-4) (240 SC) in a tank mix with 0.2% of Dynamic (910 XL) is applied at the stated application rate and the commercial standard Esteem (35 WP) is applied at the stated application rate. The application rate is 935 l of water/ha.
Evaluation is carried out 35 and 79 days after the last treatment by rating the kill of the crawlers on the shoots.

[7] = system: Dysmicoccus brevipes; test: Example 30: pineapple plants treated against Dysmicoccus brevipes; settings: nymphs on pineapple plants, g a.i./ha: Confidor OD 140, I-4 75
Protocol: In five replications, pineapple plants of the cultivar “MD2” of a height of about 35 cm are treated against Dysmicoccus brevipes. The application is carried out using a motor-operated knapsack sprayer. Here, the active compound Example (I-4) (150 OD) is tested against the commercial standard Confidor OD (240 OD), at the stated application rates. The application rate is 4000 l of water/ha. Both active compounds are sprayed as a tank mix with 500 g of a.i./ha of adjuvant NP-7 and 4 l of a.i./ha of mineral oil.
Evaluation is carried out 9, 23 and 37 days after the treatment by rating the kill of the nymphs on the plants.

[8] = system: Rhodobium porosum; test: Example 55: strawberry plants treated against Rhodobium porosum; settings: nymphs on strawberry plants, g a.i./ha: Calypso 120, I-4 75
Protocol: In four replications, plots of a size of about 3 m^2 with 3-week-old strawberry plants are treated against Macrosiphum euphorbiae and Rhodobium porosum. The application is carried out using a knapsack sprayer operated with pressurized air. Here, the active compound Example (I-4) (150 OD) and the commercial standard Calypso (480 SC) are tested at the stated application rates. Here, the standard is sprayed as a tank mix with 0.03% of Motto (adjuvant). The application rate is 500 l of water/ha.
Evaluation is carried out 7 and 14 days after the second treatment by rating the kill of the nymphs on the plants.

Compound: CCOC(=O)OC1=C(c2cc(C)ccc2Br)C(=O)NC12CCC(OC)CC2 (centres unmarked) [Example (I-2)]
- Kill (%) 3 d ([1]; 3 d after last of two treatments): 96.7%
- Kill (%) 10 d ([1]; 10 d after last of two treatments): 99%
- Kill (%) 20 d ([1]; 20 d after last of two treatments): 97.9%

Compound: CCOC(=O)OC1=C(c2cc(C)ccc2C)C(=O)NC12CCC(OC)CC2 (centres unmarked) [Example (I-4)]
- Kill (%) 3 d ([2]; 3 d after treatment): 92.6%
- Kill (%) 10 d ([2]; 10 d after treatment): 95.9%
- Kill (%) 5 d ([3]; 5 d after first of two treatments): 100%
- Kill (%) 13 d ([3]; 13 d after first of two treatments): 100%
- Kill (%) 21 d ([3]; 21 d after first of two treatments): 98.1%
- Kill (%) 29 d ([3]; 29 d after first of two treatments): 90.5%
- Kill (%) 7 d ([4]; 7 d after treatment): 99.7%
- Kill (%) 14 d ([4]; 14 d after treatment): 99.7%
- Kill (%) 21 d ([4]; 21 d after treatment): 98%
- Kill (%) 29 d ([4]; 29 d after treatment): 97%
- Kill (%) 7 d ([5]; 7 d after treatment): 92.3%
- Kill (%) 14 d ([5]; 14 d after treatment): 95.7%
- Kill (%) 26 d ([5]; 26 d after treatment): 95.1%
- Kill (%) 35 d ([6]; 35 d after last of two treatments): 90%
- Kill (%) 79 d ([6]; 79 d after last of two treatments): 87%
- Kill (%) 9 days ([7]; 9 days after treatment): 80.9%
- Kill (%) 23 days ([7]; 23 days after treatment): 84.0%
- Kill (%) 37 days ([7]; 37 days after treatment): 91.3%
- Rhodobium porosum Kill (%) 7 d ([8]; 7 d after second treatment): 97%
- Rhodobium porosum Kill (%) 14 d ([8]; 14 d after second treatment): 96%
